Read-outs that look alike come from different tables or passages of the source.
Biological target: T1, Human Cav3.1 calcium channel (Homo sapiens, UniProt O43497)
T1 construct: expressed in transfected cells; host or cells: HEK-293 natClytin/TASK1+Cav3.1 cell line
Assay: Human Cav3.1 calcium channel patch clamp assay (SyncroPatch 384PE; single point and IC50, voltage dependent block)
Assay type: cell-based
Conditions: for % Inhibition (Single Point Data): Testing Conc 1.25, patch clamp
How it was run: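 Automated whole-cell patch clamp at room temperature, cells held at −120 mV; 100 ms step to −20 mV (resting block), then 1600 ms at −65 mV and a second −20 mV step (voltage-dependent block), every 15 s. Peak currents averaged over last 3 sweeps; % inhibition relative to nickel-sensitive current.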

[1] = HEK-293 natClytin/TASK1+Cav3.1 cell line
[2] = voltage dependent block (VDB), HEK-293 natClytin/TASK1+Cav3.1 cell line, read-out: Cav3.1 IC50

T1 sequence (O43497 whole entry): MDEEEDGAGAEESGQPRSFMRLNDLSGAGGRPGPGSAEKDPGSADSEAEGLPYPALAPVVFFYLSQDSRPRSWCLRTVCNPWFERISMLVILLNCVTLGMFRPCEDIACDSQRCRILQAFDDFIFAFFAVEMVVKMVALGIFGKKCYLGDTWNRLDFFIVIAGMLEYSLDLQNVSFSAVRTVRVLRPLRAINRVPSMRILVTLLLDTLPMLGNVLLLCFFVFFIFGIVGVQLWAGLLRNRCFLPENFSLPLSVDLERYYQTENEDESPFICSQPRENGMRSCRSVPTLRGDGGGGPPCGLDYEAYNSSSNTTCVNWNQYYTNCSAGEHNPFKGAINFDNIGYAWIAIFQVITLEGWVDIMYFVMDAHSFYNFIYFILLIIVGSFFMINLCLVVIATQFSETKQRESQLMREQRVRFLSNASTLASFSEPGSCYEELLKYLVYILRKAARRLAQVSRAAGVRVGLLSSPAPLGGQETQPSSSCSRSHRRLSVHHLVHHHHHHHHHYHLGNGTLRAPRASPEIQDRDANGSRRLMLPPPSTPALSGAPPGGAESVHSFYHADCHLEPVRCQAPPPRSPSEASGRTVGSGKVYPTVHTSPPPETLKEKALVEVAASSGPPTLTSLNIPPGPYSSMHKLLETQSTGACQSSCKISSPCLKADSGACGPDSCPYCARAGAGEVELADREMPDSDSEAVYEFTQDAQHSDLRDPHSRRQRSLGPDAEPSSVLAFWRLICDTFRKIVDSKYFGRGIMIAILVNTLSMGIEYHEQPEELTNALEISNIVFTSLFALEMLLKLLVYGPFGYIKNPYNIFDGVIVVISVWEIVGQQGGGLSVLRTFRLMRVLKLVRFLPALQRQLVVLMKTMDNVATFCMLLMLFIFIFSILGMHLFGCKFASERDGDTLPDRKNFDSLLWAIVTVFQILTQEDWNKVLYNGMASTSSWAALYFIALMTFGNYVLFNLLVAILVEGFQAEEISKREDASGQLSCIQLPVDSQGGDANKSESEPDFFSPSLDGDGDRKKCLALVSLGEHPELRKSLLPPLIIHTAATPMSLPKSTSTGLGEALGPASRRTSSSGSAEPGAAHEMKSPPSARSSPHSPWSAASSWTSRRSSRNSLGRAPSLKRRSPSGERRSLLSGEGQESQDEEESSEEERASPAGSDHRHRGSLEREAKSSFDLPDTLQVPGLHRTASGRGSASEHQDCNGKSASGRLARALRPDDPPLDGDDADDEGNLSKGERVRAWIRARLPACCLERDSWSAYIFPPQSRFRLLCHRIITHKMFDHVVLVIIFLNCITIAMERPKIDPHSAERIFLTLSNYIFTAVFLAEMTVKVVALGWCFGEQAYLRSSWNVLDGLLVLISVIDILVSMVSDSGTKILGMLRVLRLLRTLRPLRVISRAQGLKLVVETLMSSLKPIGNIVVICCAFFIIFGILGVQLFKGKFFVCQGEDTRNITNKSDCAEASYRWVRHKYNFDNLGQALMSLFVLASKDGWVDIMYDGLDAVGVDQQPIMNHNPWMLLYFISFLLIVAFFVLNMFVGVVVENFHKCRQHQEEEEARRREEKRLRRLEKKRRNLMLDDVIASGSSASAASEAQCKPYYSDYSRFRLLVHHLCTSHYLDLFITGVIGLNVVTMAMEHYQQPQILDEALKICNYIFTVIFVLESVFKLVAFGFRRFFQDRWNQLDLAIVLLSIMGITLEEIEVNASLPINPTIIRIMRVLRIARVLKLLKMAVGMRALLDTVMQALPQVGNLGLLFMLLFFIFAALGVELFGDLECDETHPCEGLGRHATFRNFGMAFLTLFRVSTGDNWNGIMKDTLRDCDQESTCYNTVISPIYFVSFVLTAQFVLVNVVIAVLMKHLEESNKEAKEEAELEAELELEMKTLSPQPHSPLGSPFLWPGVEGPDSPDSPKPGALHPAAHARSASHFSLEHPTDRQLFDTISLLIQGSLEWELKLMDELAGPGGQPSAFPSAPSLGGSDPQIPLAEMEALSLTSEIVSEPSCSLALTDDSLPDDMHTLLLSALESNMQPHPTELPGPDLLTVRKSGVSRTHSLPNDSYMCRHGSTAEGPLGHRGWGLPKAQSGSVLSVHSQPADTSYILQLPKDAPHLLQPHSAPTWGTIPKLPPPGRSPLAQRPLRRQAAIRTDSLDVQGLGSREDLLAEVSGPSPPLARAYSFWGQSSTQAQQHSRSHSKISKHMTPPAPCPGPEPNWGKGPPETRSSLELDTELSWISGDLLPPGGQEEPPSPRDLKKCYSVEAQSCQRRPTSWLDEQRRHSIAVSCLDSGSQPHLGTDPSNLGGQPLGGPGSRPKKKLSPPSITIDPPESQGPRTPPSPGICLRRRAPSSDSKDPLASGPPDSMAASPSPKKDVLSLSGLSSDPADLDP

Structure (SMILES) | % Inhibition (Single Point Data) [1] [%] | IC50 [2] [nM] | IC50 [nM]
Cc1cc(NC(=O)CN2C[C@@H]3C[C@H]2CN3CC(=O)NC2(C(F)(F)F)CC2)ccc1F [Compound 340] | 50 |  | 
CC(C)(C)NC(=O)CN1C[C@@H]2C[C@H]1CN2CC(=O)NC12CC3CC(CC(O)(C3)C1)C2 [Compound 312] | 4.6566 |  | 
O=C(CN1CC2CC(C1)N2CC(=O)NC1(C(F)(F)F)CC1)Nc1cc(F)cc(Cl)c1 [Compound 170] | 96.908 |  | 
CC(C)(CO)NC(=O)CN1C2CCC1CN(Cc1nc3c(Cl)cc(F)cc3[nH]1)C2 [Compound 79] | 100 |  | 
CC(C)(C)NC(=O)CN1C2CC1CN(CC(=O)Nc1cc(Cl)ccc1F)C2 [Compound 14] | 39.34 | 1710 | 
Cc1cccc2[nH]c(C(C)N3CC4CCC(C3)N4CC(=O)NC(C)(C)C)nc12 (stereo not shown) [Compound 198] | 71.858 | 415 | 
CC(C)(C)NC(=O)CN1C2CCC1CN(CCc1nc3c(Cl)cc(F)cc3[nH]1)C2 [Compound 195] | 44.852 | 1150 | 
COc1cc(NC(=O)CN2C[C@@H]3C[C@H]2CN3CC(=O)NC(C)(C)C)cc(F)c1F [Compound 354] |  | 94 | 
CC(C)(C)NC(=O)CN1C2CC1CN(CC(=O)NC13CCC(CC1)CC3)C2 [Compound 307] | 41.625 | 1010 | 
CC1(C(=O)OCCN2C3CC2CN(Cc2nc4c(Cl)cc(F)cc4[nH]2)C3)CC1 [Compound 143] | 78.298 | 174 | 
O=C(CN1CC2CC(C1)N2CC(F)C1CCCCC1)Nc1cc(F)cc(Cl)c1 (stereo not shown) [Compound 49] | 44.843 | 1160 | 
CC(C)(C)NC(=O)CN1CC2COCC(C1)N2Cc1nc2c(Cl)cc(F)cc2[nH]1 [Compound 153] | 82.059 | 386 | 
O=S(=O)(CCN1C2CC1CN(Cc1nc3c(Cl)ccc(F)c3[nH]1)C2)c1ccccc1 [Compound 168] | 66.949 | 711 | 
CC(C)(C)NC(=O)CN1CCN(CC(=O)Nc2cc(F)cc(Cl)c2)C2(COC2)C1 [Compound 44] | 50 | 1210 | 
CC(C)(NC(=O)CN1C2CCC1CN(Cc1nc3c(Cl)cc(F)cc3[nH]1)C2)C(F)(F)F [Compound 76] | 100.39 |  | 
O=C(CN1C2CC1CN(Cc1nc3c(Cl)ccc(F)c3[nH]1)C2)NC1(C(F)(F)F)COC1 [Compound 180] | 82.621 |  | 
O=C(CN1C2CCC1CN(Cc1nc3c(Cl)cc(F)cc3[nH]1)C2)N1CCCCC1 [Compound 78] | 97.937 |  | 
COC(=O)C(C)(C)N(C)C(=O)CN1C2CCC1CN(Cc1nc3c(Cl)cc(F)cc3[nH]1)C2 [Compound 85] | 66.404 | 375 | 
CC(C)(C)NC(=O)CN1C2CCC1CN(Cc1nc3c(Cl)ccc(F)c3[nH]1)C2 [Compound 185, N-tert-butyl-2-[3-[(4-chloro-7-fluoro-1H-benzimidazol-2-yl)methyl]-3,8-diazabicyclo[3.2.1]octan-8-yl]acetamide] | 99.412 |  | < 78.2
Fc1cc(Cl)c2nc(CN3CC4CC(C3)N4CC(F)C3CCCCC3)[nH]c2c1 (stereo not shown) [Compound 169] | 84.629 | 297 | 
O=C(CN1CC2CC1CN2CC(=O)NC1(C(F)(F)F)CC1)Nc1cc(F)cc(OC(F)F)c1 (stereo not shown) [Compound 56] | 70.217 | 297 | 
O=C(CN1CC2CC(C1)N2CC(=O)NC1(C(F)(F)F)CC1)Nc1ccc(F)c(OC(F)(F)F)c1 [Compound 243] | 93.979 | 137 | 
O=C(CN1CC2CC(C1)N2CCNC(=O)C1(C(F)(F)F)CC1)Nc1cc(F)cc(Cl)c1 [Compound 232] | 98.914 | 138 | 
CC(C)(C)NC(=O)CN1C[C@@H]2C[C@H]1CN2CC(=O)NC12CCC(CC1)C2 [Compound 288] | 23.299 | 1710 | 
O=C(CN1C2CCC1CN(Cc1nc3c(Cl)cc(F)cc3[nH]1)C2)N1CCOCC1 [Compound 83] | 84.836 | 441 | 
CC1(NC(=O)CN2CC3CC2CN3CC(=O)Nc2ccc(F)c(Cl)c2)CC1 (stereo not shown) [Compound 234] | 51.647 | 1250 | 

Structure (SMILES) | % Inhibition (Single Point Data) [1] [%] | IC50 [2] [nM] | IC50 [nM]
CC(C(=O)NC(C)(C)C)N1C2CC1CN(CC(=O)Nc1ccc(F)c(Cl)c1)C2 (stereo not shown) [Compound 260] | 80.656 | 274 | 
CC(C)(C)NC(=O)CN1C2CC1CN(CC(=O)NC1CCCCC1)C2 [Compound 309] | 22.713 |  | 
CC(C)(NC(=O)CN1CC2CC1CN2CC(=O)Nc1cc(F)cc(OC(F)F)c1)C(F)(F)F (stereo not shown) [Compound 55] | 76.829 |  | 
OC1(CCN2C3CC2CN(Cc2nc4c(Cl)cc(F)cc4[nH]2)C3)CCCC1 [Compound 108] | 79.783 | 338 | 
CC(C)(C)NC(=O)CN1C2CC1CN(CC(=O)Nc1cccc(Cl)c1)C2 [Compound 11] | 81.305 |  | 
CC(C)(C)NC(=O)CN1C[C@@H]2CC[C@H]1CN2CC(=O)Nc1ccc(F)c(OC(F)F)c1 [Compound 267] | 73.222 | 455 | 
CN(C(=O)CN1C2CC1CN(Cc1nc3c(Cl)cc(F)cc3[nH]1)C2)C(C)(C)C [Compound 101] | 96.57 |  | 
CC(C)(C)NC(=O)CN1C2CC1CN(Cc1nc3c(C(F)(F)F)cccc3[nH]1)C2 [Compound 122] | 80.218 | 224 | 
O=C(CN1CC2CC1CN2CCNC(=O)C1(C(F)(F)F)CC1)Nc1ccc(F)c(Cl)c1 (stereo not shown) [Compound 18] | 83.021 | 337 | 
CC(C)(C)NC(=O)CN1C[C@@H]2C[C@H]1CN2CC(=O)Nc1cc(F)c(F)c(Cl)c1 [Compound 348] |  | < 78.2 | 
Fc1ccc(Cl)c2nc(CN3CCN(CC(F)(F)C4CCCC4)CC3)[nH]c12 [Compound 163] | 54.884 | 671 | 
CC(C)Cc1cc(CNC(=O)CN2CCN(CC(=O)NC(C)(C)C)CC2)nn1-c1ccccc1 [Compound 1, 2-[4-[2-(tert-butylamino)-2-oxo-ethyl]piperazin-1-yl]-N-[(5-isobutyl-1-phenyl-pyrazol-3-yl)methyl]acetamide] | 27.978 | 2240 | 
CC(C)(NC(=O)CN1C[C@@H]2C[C@H]1CN2CC(=O)Nc1ccc(F)c(Cl)c1)C(F)(F)F [Compound 24] | 92.08 | 185 | 
C[C@H](c1nc2c(Cl)cc(F)cc2[nH]1)N1CC2CCC(C1)N2CC(=O)NC(C)(C)C [Compound 118] | 102.64 |  | 
CC1(C)CCN1C(=O)CN1C2CC1CN(Cc1nc3c(Cl)cc(F)cc3[nH]1)C2 [Compound 94] | 89.896 | 249 | 
CC(C)(C)NC(=O)CN1C2CC1CN(CC(=O)Nc1ccc(F)c(OC(F)(F)F)c1)C2 [Compound 242] | 93.661 | 177 | 
O=C(CN1CC2CC(C1)N2CC(=O)NC1(C(F)(F)F)CC1)Nc1ccc(F)c(OC(F)F)c1 [Compound 245] | 96.987 |  | 97.8
Cc1cc(Cl)cc(NC(=O)CN2C[C@@H]3C[C@H]2CN3CC(=O)NC(C)(C)C)c1 [Compound 283] | 94.657 | 140 | 
CC(C)(C)NC(=O)CN1C[C@@H]2C[C@H]1CN2CC(=O)NC1CCCCC1 [Compound 289] | 36.292 | 5020 | 
CC(C)(C)NC(=O)CN1CCC(CNc2nccc3c(F)cc(Cl)cc23)CC1 [Compound 123] | 96.398 | 243 | 
OC(CN1C2CC1CN(Cc1nc3c(Cl)cc(F)cc3[nH]1)C2)C1CCCCC1 (stereo not shown) [Compound 147] | 99.075 |  | 
CC(C)(C)NC(=O)CN1C2CC1CN(C(=O)NCC13CC4CC(CC(C4)C1)C3)C2 [Compound 295] | 0.753 |  | 
O=C(CN1CC2CC(C1)N2CC(=O)NC1(C(F)(F)F)CC1)Nc1ccc(F)c(Cl)c1 [Compound 240] | 80.113 | 329 | 
OC1(CCN2C3CCC2CN(Cc2nc4c(Cl)cc(F)cc4[nH]2)C3)CCCC1 [Compound 92] | 98.505 | 175 | 
CC(C)(C)NC(=O)CN1CCO[C@H](CNC(=O)c2ccc(F)c(OC(F)F)c2)C1 [Compound 367] |  | 5720 | 
